According to paper PMC11413854, “Reversible Control of Native GluN2B-Containing NMDA Receptors with Visible Light” (ACS Chemical Neuroscience, 2024):
Read-outs that look alike come from different tables or passages of the source.

Target: T1, GluN1/GluN2B NMDA receptors (UniProt P35439+Q01097)
T1 construct: expressed in transfected cells; host or cells: Xenopus laevis oocytes (nuclear cDNA injection)
Assay: TEVC electrophysiology on Xenopus oocytes expressing wt GluN1/GluN2B NMDARs
Format: cell-based, rat GluN1, mouse GluN2B
Details: for Relative current for theoretical DRC 9% trans / Relative current for theoretical DRC 18% trans / remaining activity at 0.03 µM / remaining activity at 0.1 µM / remaining activity at 0.3 µM / remaining activity at 2 µM: GluN1/GluN2B wt; for Relative current for theoretical DRC 9% trans: theoretical for 350 nm PSS; for Relative current for theoretical DRC 18% trans: theoretical for 365 nm PSS; for remaining activity at 0.03 µM / remaining activity at 0.1 µM / remaining activity at 0.3 µM / remaining activity at 2 µM: Sup. Fig. 3F, read-out: Relative current (IOpto/I0); for remaining activity at 0.03 µM: [OptoNAM-3] 0.03 µM; for remaining activity at 0.1 µM: [OptoNAM-3] 0.1 µM
Excerpt: The activity of OptoNAM-3 was functionally monitored by electrophysiology on Xenopus oocytes (see Methods). To assess the light-dependent effect, we tested the activities of the dark PSS (mostly trans) and the UV PSS (mostly cis, see above) separately. For each concentration, we prepared a solution divided into two samples: one in which the compound was kept in the dark for the duration of the experiment (dark PSS state); and the other that was preilluminated with either 350 or 365 nm light (350 or 365 nm PSS) and then kept away from the light for the duration of the experiment in order to avoid photoisomerization of the compounds by ambient light (see Methods). […] We generated dose–response curves of OptoNAM-3 dark and UV PSS on wild-type (wt) GluN1/GluN2B NMDA receptors (Figure 3A) in the presence of saturating concentrations of agonists (100 μM glutamate and glycine).
We used cDNA coding for rat GluN1–1a (named GluN1 herein) (GenBank: U08261.1), rat GluN2A (GenBank: D13211.1), mouse GluN2B (GenBank: D10651.2), rat GluA1 flop (GenBank: M36418.2), and rat Myc-GluA2(Q)-flip (GenBank: AF164344.1) cloned into pcDNA3-based expression plasmids. GluK2 (GenBank: Z11548.1) corresponds to the fully RNA-edited version.[80] The GluN2B-ΔNTD construct is from ref[45] and GluN2B–N615K is from ref[81]. Single mutants GluN2B-Q110G and GluN1-L135H were from ref[19]. The GluA2 cDNA contains a Myc tag ([…]) fused between the signal peptide and the N-terminus sequences, and the GluA2 subunit is […] for its Q/R/N site (GluA2(Q)) to allow permeation of homomeric GluA2 receptors.[2] cDNAs coding for rat GluN2C (GenBank: M91563.1) and GluN2D subunits (GenBank: L31611.1) were in prK5 plasmids.
Oocytes from Xenopus laevis were used for heterologous expression of recombinant NMDA receptors studied using a two-electrode voltage clamp (TEVC). Female Xenopus laevis were housed and ovary bags harvested according to the European Union guidelines (husbandry authorizations #C75–05–31 and #D75–05–31; project authorizations #05137.02; and Apafis #28867–2020121814485893). Fragments of ovary bags were also purchased from the “Centre de Ressources Biologiques Xenopes” (now TEFOR, Paris Saclay, France) and from the European Xenopus Resource Center (EXRC, Portsmouth, UK). Xenopus laevis oocytes were harvested and prepared as previously described in ref[82].
Expression of recombinant NMDA receptors was obtained by oocyte nuclear coinjection of 37 nL of a mixture of cDNAs (at 30 ng/μL) coding for GluN1–1a and various GluN2 subunits (ratio 1:1). The protocol in ref[43] was followed for the expression of GluN1/GluN2A/GluN2B triheteromers. The oocytes were transferred in 96-well plates filled with Barth solution (in mM: 88 NaCl, 1 KCl, 0.33 Ca(NO3)2, 0.41 CaCl2, 0.82 MgSO4, 2.4 NaHCO3, and 7.5 HEPES, pH adjusted to 7.3 with NaOH), supplemented with gentamicin ([…]) and 50 μM APV, a selective NMDA receptor antagonist. Plates were then stored at 18 °C for 24 h for GluN1/GluN2A expression and for 48––72 h for the expression of GluN1/Glu2B, GluN1/GluN2A/GluN2B, and mutants.
TEVC recordings were performed 1–3 days following injection. TEVC recordings were performed using an Oocyte Clamp amplifier OC-725 (Warner Instruments) and computer-controlled via a 1440A Digidata (Molecular Devices). Currents were sampled at 100 Hz and low-pass-filtered at 20 Hz using an 8-pole Bessel filter (900 Series, Frequency Devices Inc.).

[1] = OptoNAM-3 dark PSS (trans) + 0.2 µM ifenprodil
[2] = OptoNAM-3 dark PSS (trans), no ifenprodil
[3] = preilluminated in solution, Xenopus oocytes

T1 sequence (Q01097 27-1482, other chains not shown): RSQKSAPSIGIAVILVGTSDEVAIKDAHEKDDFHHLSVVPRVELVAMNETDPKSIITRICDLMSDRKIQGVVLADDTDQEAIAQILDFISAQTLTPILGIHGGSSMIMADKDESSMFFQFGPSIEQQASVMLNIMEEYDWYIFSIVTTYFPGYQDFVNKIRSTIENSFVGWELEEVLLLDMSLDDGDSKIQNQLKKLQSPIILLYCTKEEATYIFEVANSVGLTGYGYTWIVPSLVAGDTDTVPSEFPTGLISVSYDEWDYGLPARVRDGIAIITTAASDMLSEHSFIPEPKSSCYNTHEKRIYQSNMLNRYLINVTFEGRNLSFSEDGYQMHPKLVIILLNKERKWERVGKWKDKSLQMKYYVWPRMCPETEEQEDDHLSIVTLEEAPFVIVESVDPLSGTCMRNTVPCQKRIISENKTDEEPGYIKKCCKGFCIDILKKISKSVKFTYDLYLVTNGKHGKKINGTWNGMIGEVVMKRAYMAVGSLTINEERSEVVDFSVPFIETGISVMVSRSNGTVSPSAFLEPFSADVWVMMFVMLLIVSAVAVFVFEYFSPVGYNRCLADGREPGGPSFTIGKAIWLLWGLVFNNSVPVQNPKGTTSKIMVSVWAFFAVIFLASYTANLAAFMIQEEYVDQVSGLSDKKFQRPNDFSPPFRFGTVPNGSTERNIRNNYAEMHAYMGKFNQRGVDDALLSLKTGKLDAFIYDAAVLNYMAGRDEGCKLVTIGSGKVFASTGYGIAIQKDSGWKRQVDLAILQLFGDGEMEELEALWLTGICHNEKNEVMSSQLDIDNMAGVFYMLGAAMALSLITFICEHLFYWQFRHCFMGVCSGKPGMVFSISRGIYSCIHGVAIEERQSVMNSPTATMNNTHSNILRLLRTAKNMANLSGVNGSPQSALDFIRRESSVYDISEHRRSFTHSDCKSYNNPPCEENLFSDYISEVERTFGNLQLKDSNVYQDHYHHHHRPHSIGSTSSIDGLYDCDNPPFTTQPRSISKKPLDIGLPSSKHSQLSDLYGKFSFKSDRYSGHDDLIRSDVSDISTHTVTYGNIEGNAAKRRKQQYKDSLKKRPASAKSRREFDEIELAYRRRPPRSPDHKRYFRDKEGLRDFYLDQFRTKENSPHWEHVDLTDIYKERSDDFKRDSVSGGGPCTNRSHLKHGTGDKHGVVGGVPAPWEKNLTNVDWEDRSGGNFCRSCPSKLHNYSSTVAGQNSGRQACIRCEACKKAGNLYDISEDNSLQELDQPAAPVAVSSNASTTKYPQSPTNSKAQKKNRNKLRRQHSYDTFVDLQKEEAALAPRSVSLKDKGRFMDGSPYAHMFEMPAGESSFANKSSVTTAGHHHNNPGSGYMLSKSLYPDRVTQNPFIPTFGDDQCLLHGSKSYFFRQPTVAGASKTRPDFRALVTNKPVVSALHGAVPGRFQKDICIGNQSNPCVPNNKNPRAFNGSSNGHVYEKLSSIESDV

**Q.** With c1ccc(/N=N/c2ccc(CCNc3ccncc3)cc2)cc1 [OptoNAM-3, (E)-N-(4-(Phenyldiazenyl)phenethyl)pyridin-4-amine] as the compound, how does the “Relative current for theoretical DRC 9% trans” value ([OptoNAM-3] 1 µM) read?
**A.** 0.775

**Q.** And the “Relative current for theoretical DRC 9% trans” value ([OptoNAM-3] 2 µM)?
**A.** 0.656

**Q.** What about the “Relative current for theoretical DRC 9% trans” value ([OptoNAM-3] 3 µM) of the same compound?
**A.** 0.570

**Q.** And the “Relative current for theoretical DRC 9% trans” value ([OptoNAM-3] 5 µM)?
**A.** 0.452

**Q.** And the “Relative current for theoretical DRC 18% trans” value ([OptoNAM-3] 0.025 µM)?
**A.** 0.980

**Q.** And the “Relative current for theoretical DRC 18% trans” value ([OptoNAM-3] 0.05 µM)?
**A.** 0.965

**Q.** And the “Relative current for theoretical DRC 18% trans” value ([OptoNAM-3] 0.125 µM)?
**A.** 0.924

**Q.** And the “Relative current for theoretical DRC 18% trans” value ([OptoNAM-3] 0.22 µM)?
**A.** 0.880

**Q.** And the “Relative current for theoretical DRC 18% trans” value ([OptoNAM-3] 0.3 µM)?
**A.** 0.848

**Q.** What about the “Relative current for theoretical DRC 18% trans” value ([OptoNAM-3] 0.5 µM) of the same compound?
**A.** 0.775

**Q.** What about the “Relative current for theoretical DRC 18% trans” value ([OptoNAM-3] 1 µM) of the same compound?
**A.** 0.656

**Q.** What about the “Relative current for theoretical DRC 18% trans” value ([OptoNAM-3] 2 µM) of the same compound?
**A.** 0.500

**Q.** What about the “Relative current for theoretical DRC 18% trans” value ([OptoNAM-3] 3 µM) of the same compound?
**A.** 0.416

**Q.** What about the “Relative current for theoretical DRC 18% trans” value ([OptoNAM-3] 5 µM) of the same compound?
**A.** 0.307

**Q.** What about the “Relative current for theoretical DRC 18% trans” value ([OptoNAM-3] 30 µM) of the same compound?
**A.** 0.073

**Q.** And the remaining activity at 0.03 µM [1]?
**A.** 93.3%

**Q.** And the remaining activity at 0.1 µM [1]?
**A.** 89%

**Q.** And the remaining activity at 0.3 µM (OptoNAM-3 dark PSS (trans) + 0.2 µM ifenprodil, [OptoNAM-3] 0.3 µM)?
**A.** 77.3%

**Q.** What about the remaining activity at 2 µM (OptoNAM-3 dark PSS (trans) + 0.2 µM ifenprodil, [OptoNAM-3] 2 µM) of the same compound?
**A.** 32.6%

**Q.** What about the remaining activity at 0.03 µM [2] of the same compound?
**A.** 95.1%

**Q.** What about the remaining activity at 0.1 µM [2] of the same compound?
**A.** 84.9%

**Q.** What about the remaining activity at 0.3 µM (OptoNAM-3 dark PSS (trans), no ifenprodil, [OptoNAM-3] 0.3 µM) of the same compound?
**A.** 63.5%

**Q.** And the remaining activity at 2 µM (OptoNAM-3 dark PSS (trans), no ifenprodil, [OptoNAM-3] 2 µM)?
**A.** 14.7%

**Q.** And the “Mean Relative current (IOpto/I0)” value ([OptoNAM-3] 0.025 µM, 365 nm PSS)?
**A.** 0.933

**Q.** And the “Mean Relative current (IOpto/I0)” value ([OptoNAM-3] 0.025 µM, dark PSS (trans))?
**A.** 0.887

**Q.** What about the “Mean Relative current (IOpto/I0)” value ([OptoNAM-3] 0.050 µM, 365 nm PSS) of the same compound?
**A.** 0.910

**Q.** And the “Mean Relative current (IOpto/I0)” value ([OptoNAM-3] 0.050 µM, dark PSS (trans))?
**A.** 0.827

**Q.** And the “Mean Relative current (IOpto/I0)” value ([OptoNAM-3] 0.125 µM, 350 nm PSS)?
**A.** 0.907

**Q.** What about the “Mean Relative current (IOpto/I0)” value ([OptoNAM-3] 0.125 µM, 365 nm PSS) of the same compound?
**A.** 0.912

**Q.** And the “Mean Relative current (IOpto/I0)” value ([OptoNAM-3] 0.125 µM, dark PSS (trans))?
**A.** 0.758

**Q.** What about the “Mean Relative current (IOpto/I0)” value ([OptoNAM-3] 0.220 µM, 365 nm PSS) of the same compound?
**A.** 0.880

**Q.** And the “Mean Relative current (IOpto/I0)” value ([OptoNAM-3] 0.220 µM, dark PSS (trans))?
**A.** 0.592

**Q.** What about the “Mean Relative current (IOpto/I0)” value ([OptoNAM-3] 0.300 µM, 350 nm PSS) of the same compound?
**A.** 0.918

**Q.** What about the “Mean Relative current (IOpto/I0)” value ([OptoNAM-3] 0.300 µM, 365 nm PSS) of the same compound?
**A.** 0.841

**Q.** What about the “Mean Relative current (IOpto/I0)” value ([OptoNAM-3] 0.300 µM, dark PSS (trans)) of the same compound?
**A.** 0.581

**Q.** And the “Mean Relative current (IOpto/I0)” value ([OptoNAM-3] 0.470 µM, 350 nm PSS)?
**A.** 0.900

**Q.** What about the “Mean Relative current (IOpto/I0)” value ([OptoNAM-3] 0.500 µM, 365 nm PSS) of the same compound?
**A.** 0.666

**Q.** What about the “Mean Relative current (IOpto/I0)” value ([OptoNAM-3] 1.000 µM, 350 nm PSS) of the same compound?
**A.** 0.860

**Q.** What about the “Mean Relative current (IOpto/I0)” value ([OptoNAM-3] 1.000 µM, 365 nm PSS) of the same compound?
**A.** 0.644

**Q.** What about the “Mean Relative current (IOpto/I0)” value ([OptoNAM-3] 1.000 µM, dark PSS (trans)) of the same compound?
**A.** 0.307

**Q.** What about the “Mean Relative current (IOpto/I0)” value ([OptoNAM-3] 2.000 µM, 350 nm PSS) of the same compound?
**A.** 0.656

**Q.** What about the “Mean Relative current (IOpto/I0)” value ([OptoNAM-3] 2.000 µM, 365 nm PSS) of the same compound?
**A.** 0.433

**Q.** And the “Mean Relative current (IOpto/I0)” value ([OptoNAM-3] 2.000 µM, dark PSS (trans))?
**A.** 0.141

**Q.** And the “Mean Relative current (IOpto/I0)” value ([OptoNAM-3] 3.000 µM, 350 nm PSS)?
**A.** 0.613

**Q.** What about the “Mean Relative current (IOpto/I0)” value ([OptoNAM-3] 3.000 µM, 365 nm PSS) of the same compound?
**A.** 0.375

**Q.** What about the “Mean Relative current (IOpto/I0)” value ([OptoNAM-3] 3.000 µM, dark PSS (trans)) of the same compound?
**A.** 0.098

**Q.** What about the “Mean Relative current (IOpto/I0)” value ([OptoNAM-3] 5.000 µM, 350 nm PSS) of the same compound?
**A.** 0.446

**Q.** And the “Mean Relative current (IOpto/I0)” value ([OptoNAM-3] 5.000 µM, 365 nm PSS)?
**A.** 0.267

**Q.** What about the “Mean Relative current (IOpto/I0)” value ([OptoNAM-3] 5.000 µM, dark PSS (trans)) of the same compound?
**A.** 0.092

**Q.** What about the “Mean Relative current (IOpto/I0)” value ([OptoNAM-3] 30.000 µM, 365 nm PSS) of the same compound?
**A.** 0.034

**Q.** What about the “Mean Relative current (IOpto/I0)” value ([OptoNAM-3] 30.000 µM, dark PSS (trans)) of the same compound?
**A.** 0.00423

**Q.** What about the IC50 (control curve of the ifenprodil competition experiment, read-out: IC50 in the dark in absence of ifenprodil) of the same compound?
**A.** 460 ± 60 nM

**Q.** And the “increase of IC50 by 0.2 µM ifenprodil” value (dark)?
**A.** ~ 2 fold

**Q.** And the IC50 (dark PSS (trans), 100 µM glutamate + glycine, Xenopus oocytes, read-out: IC50 on GluN1/GluN2B receptors in the dark)?
**A.** 380 ± 30 nM

**Q.** What about the IC50 (dark PSS (trans), Xenopus oocytes, read-out: IC50 on GluN1/GluN2B receptors in the dark) of the same compound?
**A.** 380 nM

**Q.** And the “UV/dark IC50 ratio (350 nm PSS vs dark)” value [3]?
**A.** 11.5 fold

**Q.** What about the “UV/dark IC50 ratio (365 nm PSS vs dark)” value [3] of the same compound?
**A.** 4.5 fold

**Q.** What about the IC50 (range over HEK cells and Xenopus oocytes, read-out: IC50 in the dark (trans isomer)) of the same compound?
**A.** 150 to 380 nM

**Q.** What about the “activity of the cis isomer on GluN1/GluN2B NMDARs” value (theoretical dose-response curve of a pure cis population calculated from 365 and 350 nm PSS) of the same compound?
**A.** no inhibitory activity
